Series [1] addresses GABA-A receptor; alpha-1/beta-2/gamma-2 (Homo sapiens) (UniProt P14867+P47870+P18507). In words: GABAA1 (h) (alpha1,beta2,gamma2) Eurofins-Cerep binding assay. To be noted: filed as agonist, Compound concentration 10.0 uM. The format is protein-complex assay. Details: ligand concentration 15 nM.
The target of series [2] is Alpha-1A adrenergic receptor (Homo sapiens) (UniProt P35348). In words: Alpha1A (h) Eurofins-Cerep binding assay. Details: ligand concentration 0.1 nM. To be noted: filed as antagonist, Compound concentration 10.0 uM.
In series [3] the target is MAO-A (amine oxidase [flavin-containing] A) (Rattus norvegicus, UniProt P21396). Put plainly: MAO-A Eurofins-Cerep binding assay. Details: incubation time 60 min, incubation temperature 37°C, ligand concentration 10 nM. To be noted: rat cerebral cortex, probe [3H]Ro 41-1049 (10 nM), compound concentration 10 uM, read-out: % Inhibition of Control Specific Binding (Mean n=2).

Series [4] has as its target T1, Muscarinic acetylcholine receptor M2 (Homo sapiens) (UniProt P08172).
T1 sequence (whole entry): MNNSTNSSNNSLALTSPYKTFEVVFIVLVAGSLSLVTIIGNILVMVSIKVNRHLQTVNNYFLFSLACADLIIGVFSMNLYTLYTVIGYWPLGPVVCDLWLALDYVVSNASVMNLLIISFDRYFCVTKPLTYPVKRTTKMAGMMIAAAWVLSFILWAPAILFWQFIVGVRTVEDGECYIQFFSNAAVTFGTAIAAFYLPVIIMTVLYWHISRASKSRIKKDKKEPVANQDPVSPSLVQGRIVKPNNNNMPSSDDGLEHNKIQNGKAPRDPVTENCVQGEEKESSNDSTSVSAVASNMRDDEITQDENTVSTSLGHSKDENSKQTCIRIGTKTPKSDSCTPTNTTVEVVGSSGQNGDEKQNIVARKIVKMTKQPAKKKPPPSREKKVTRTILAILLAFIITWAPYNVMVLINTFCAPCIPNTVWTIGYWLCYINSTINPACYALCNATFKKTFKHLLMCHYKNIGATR
Put plainly: M2 (h) Eurofins-Cerep binding assay. Details: ligand concentration 2 nM. To be noted: filed as antagonist, Compound concentration 10.0 uM.

Series [5] concerns the target Sodium-dependent serotonin transporter (Homo sapiens) (UniProt P31645). In words: 5-HT transporter (h) Eurofins-Cerep binding assay. The arrangement: ligand concentration 2 nM. To be noted: filed as antagonist, Compound concentration 10.0 uM.
For series [6], the target named is P2X receptor (Rattus norvegicus) (UniProt P51579+P49653+P51578+Q64663+P47824+P51577+P49654). Put plainly: P2X Eurofins-Cerep binding assay. The format is protein assay. Details: ligand concentration 3 nM. To be noted: filed as agonist, Compound concentration 10.0 uM.
For series [7], the system named is eIF-2-alpha kinase GCN2 (Homo sapiens), Q9P2K8 [S808G]. To be noted: Compound concentration 1000.0 nM.
For series [8], the target named is Serine/threonine-protein kinase VRK2 (Homo sapiens) (UniProt Q86Y07). To be noted: Compound concentration 1000.0 nM.
Series [9] concerns the target Serine/threonine-protein kinase PAK 5 (Homo sapiens) (UniProt Q9P286). The note with it: Compound concentration 1000.0 nM.
The target of series [10] is Dual specificity protein kinase CLK3 (Homo sapiens) (UniProt P49761). To be noted: Compound concentration 1000.0 nM.
The target in series [11] is LIM domain kinase 2 (Homo sapiens) (UniProt P53671). To be noted: Compound concentration 1000.0 nM.
In series [12] the target is Serine/threonine-protein kinase PknB (Mycobacterium tuberculosis) (UniProt P9WI81). The note with it: Compound concentration 1000.0 nM.
The target of series [13] is Cyclin-dependent kinase 5 (Homo sapiens) (UniProt Q00535). To be noted: Compound concentration 1000.0 nM.
Series [14] concerns the target Phosphatidylinositol 4,5-bisphosphate 3-kinase catalytic subunit alpha isoform (Homo sapiens) (UniProt P42336). To be noted: Compound concentration 1000.0 nM.
In series [15] the target is Serine/threonine-protein kinase WNK1 (Homo sapiens) (UniProt Q9H4A3). To be noted: Compound concentration 1000.0 nM.
Series [16] deals with Serine/threonine-protein kinase tousled-like 2 (Homo sapiens) (UniProt Q86UE8). To be noted: Compound concentration 1000.0 nM.
The target in series [17] is Serine/threonine-protein kinase MARK2 (Homo sapiens) (UniProt Q7KZI7). The note with it: Compound concentration 1000.0 nM.
The test system of series [18] is Receptor-type tyrosine-protein kinase FLT3 (Homo sapiens), P36888 [UNDEFINED MUTATION]. To be noted: Compound concentration 1000.0 nM.
The test system of series [19] is Mast/stem cell growth factor receptor Kit (Homo sapiens), P10721 [V559D]. To be noted: Compound concentration 1000.0 nM.
Series [20] concerns the target Dual specificity tyrosine-phosphorylation-regulated kinase 1B (Homo sapiens) (UniProt Q9Y463). The note with it: Compound concentration 1000.0 nM.
Series [21] deals with Mitogen-activated protein kinase 9 (Homo sapiens) (UniProt P45984). To be noted: Compound concentration 1000.0 nM.
Series [22] concerns the target Mitogen-activated protein kinase kinase kinase 13 (Homo sapiens) (UniProt O43283). The note with it: Compound concentration 1000.0 nM.
The target of series [23] is Dual specificity protein kinase CLK1 (Homo sapiens) (UniProt P49759). The note with it: Compound concentration 1000.0 nM.
Series [24] deals with Serine/threonine-protein kinase SIK2 (Homo sapiens) (UniProt Q9H0K1). The note with it: Compound concentration 1000.0 nM.
In series [25] the target is Vascular endothelial growth factor receptor 3 (Homo sapiens) (UniProt P35916). The note with it: Compound concentration 1000.0 nM.
The target of series [26] is BMP-2-inducible protein kinase (Homo sapiens) (UniProt Q9NSY1). To be noted: Compound concentration 1000.0 nM.
Series [27] concerns the target STE20/SPS1-related proline-alanine-rich protein kinase (Homo sapiens) (UniProt Q9UEW8). The note with it: Compound concentration 1000.0 nM.
Series [28] addresses MAP kinase-interacting serine/threonine-protein kinase 2 (Homo sapiens) (UniProt Q9HBH9). The note with it: Compound concentration 1000.0 nM.
Series [29] concerns the target Mitogen-activated protein kinase kinase kinase kinase 2 (Homo sapiens) (UniProt Q12851). To be noted: Compound concentration 1000.0 nM.
Series [30] deals with Ephrin type-A receptor 7 (Homo sapiens) (UniProt Q15375). To be noted: Compound concentration 1000.0 nM.
The target of series [31] is Dual specificity protein kinase TTK (Homo sapiens) (UniProt P33981). To be noted: Compound concentration 1000.0 nM.
Series [32] has as its target Casein kinase I isoform alpha-like (Homo sapiens) (UniProt Q8N752). To be noted: Compound concentration 1000.0 nM.
Series [33] deals with Cytoplasmic tyrosine-protein kinase BMX (Homo sapiens) (UniProt P51813). The note with it: Compound concentration 1000.0 nM.
In series [34] the target is Ribosomal protein S6 kinase beta-1 (Homo sapiens) (UniProt P23443). To be noted: Compound concentration 1000.0 nM.
The subject of series [35] is Tyrosine-protein kinase ABL1 (Homo sapiens), P00519 [Q252H]. The note with it: Compound concentration 1000.0 nM.
Series [36] concerns the target Ephrin type-A receptor 2 (Homo sapiens) (UniProt P29317). To be noted: Compound concentration 1000.0 nM.

The results in this text go back to ChEMBL document CHEMBL4507311, “Data for DCP probe A-1155463” (2021).

A word on the inhibition: it is the drop in the measured response relative to a control, in per cent.

Chain of Sodium-dependent serotonin transporter (Homo sapiens) (P31645 whole entry, looked up): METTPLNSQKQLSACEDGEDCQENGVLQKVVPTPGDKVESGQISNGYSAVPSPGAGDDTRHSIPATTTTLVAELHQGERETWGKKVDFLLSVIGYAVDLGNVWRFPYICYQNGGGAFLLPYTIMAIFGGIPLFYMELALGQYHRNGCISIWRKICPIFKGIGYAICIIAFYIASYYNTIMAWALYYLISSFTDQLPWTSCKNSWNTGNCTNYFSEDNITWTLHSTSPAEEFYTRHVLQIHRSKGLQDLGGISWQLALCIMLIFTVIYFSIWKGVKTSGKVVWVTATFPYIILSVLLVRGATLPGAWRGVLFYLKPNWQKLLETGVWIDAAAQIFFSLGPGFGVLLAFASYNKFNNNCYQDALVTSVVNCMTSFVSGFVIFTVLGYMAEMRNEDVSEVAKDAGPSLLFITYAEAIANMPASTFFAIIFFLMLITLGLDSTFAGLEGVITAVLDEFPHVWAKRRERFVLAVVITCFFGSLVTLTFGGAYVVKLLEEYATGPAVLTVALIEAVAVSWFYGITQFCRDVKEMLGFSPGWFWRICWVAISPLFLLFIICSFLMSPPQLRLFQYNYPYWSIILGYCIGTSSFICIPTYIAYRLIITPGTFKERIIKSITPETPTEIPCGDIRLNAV
Chain of MAO-A (amine oxidase [flavin-containing] A) (P21396 whole entry): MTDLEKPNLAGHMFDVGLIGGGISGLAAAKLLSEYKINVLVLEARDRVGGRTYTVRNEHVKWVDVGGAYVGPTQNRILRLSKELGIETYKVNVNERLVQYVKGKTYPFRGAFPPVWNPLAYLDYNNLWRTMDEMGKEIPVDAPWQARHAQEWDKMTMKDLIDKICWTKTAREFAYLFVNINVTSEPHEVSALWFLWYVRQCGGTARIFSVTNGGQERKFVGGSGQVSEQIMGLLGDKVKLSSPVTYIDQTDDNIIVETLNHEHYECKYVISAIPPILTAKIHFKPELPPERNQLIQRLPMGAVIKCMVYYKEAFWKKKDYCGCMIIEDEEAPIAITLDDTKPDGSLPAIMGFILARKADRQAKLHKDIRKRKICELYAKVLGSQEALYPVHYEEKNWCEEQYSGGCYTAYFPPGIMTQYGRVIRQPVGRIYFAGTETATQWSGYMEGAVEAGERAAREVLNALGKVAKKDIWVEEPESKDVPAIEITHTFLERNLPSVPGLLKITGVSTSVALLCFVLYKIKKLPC
Chain of Alpha-1A adrenergic receptor (Homo sapiens) (P35348 whole entry): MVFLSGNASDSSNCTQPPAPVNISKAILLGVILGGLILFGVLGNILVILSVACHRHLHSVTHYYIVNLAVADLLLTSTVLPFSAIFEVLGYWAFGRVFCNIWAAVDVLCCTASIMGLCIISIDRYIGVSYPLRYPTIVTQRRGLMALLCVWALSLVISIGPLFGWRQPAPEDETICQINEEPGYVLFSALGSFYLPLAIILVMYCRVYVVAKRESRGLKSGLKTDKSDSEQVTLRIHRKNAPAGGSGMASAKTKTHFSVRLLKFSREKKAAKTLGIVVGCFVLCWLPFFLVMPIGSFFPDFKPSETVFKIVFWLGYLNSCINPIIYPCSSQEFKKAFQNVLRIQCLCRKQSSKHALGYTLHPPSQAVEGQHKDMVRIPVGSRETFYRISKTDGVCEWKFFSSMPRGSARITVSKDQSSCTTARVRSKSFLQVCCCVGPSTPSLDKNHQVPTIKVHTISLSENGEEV
Chain of Dual specificity tyrosine-phosphorylation-regulated kinase 1B (Homo sapiens) (Q9Y463 whole entry, looked up): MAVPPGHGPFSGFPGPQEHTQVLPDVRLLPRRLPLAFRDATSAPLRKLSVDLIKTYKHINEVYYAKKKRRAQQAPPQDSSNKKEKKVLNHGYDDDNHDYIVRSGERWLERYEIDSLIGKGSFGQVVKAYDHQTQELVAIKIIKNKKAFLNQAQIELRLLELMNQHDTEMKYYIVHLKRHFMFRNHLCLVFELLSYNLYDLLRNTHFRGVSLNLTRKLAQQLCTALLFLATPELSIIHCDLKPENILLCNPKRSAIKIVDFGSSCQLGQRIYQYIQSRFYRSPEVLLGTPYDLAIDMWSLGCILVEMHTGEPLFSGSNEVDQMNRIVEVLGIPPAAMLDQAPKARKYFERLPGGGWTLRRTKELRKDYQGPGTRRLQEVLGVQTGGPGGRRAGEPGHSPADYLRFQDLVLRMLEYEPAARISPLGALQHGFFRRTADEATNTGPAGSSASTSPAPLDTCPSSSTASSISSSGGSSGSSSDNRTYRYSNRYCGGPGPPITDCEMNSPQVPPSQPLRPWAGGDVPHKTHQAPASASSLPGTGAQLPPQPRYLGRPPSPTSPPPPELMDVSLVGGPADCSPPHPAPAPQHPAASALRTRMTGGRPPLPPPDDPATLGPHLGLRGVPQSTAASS
Chain of Receptor-type tyrosine-protein kinase FLT3 (Homo sapiens), P36888 [UNDEFINED MUTATION] (P36888 whole entry, looked up, stated change not applied): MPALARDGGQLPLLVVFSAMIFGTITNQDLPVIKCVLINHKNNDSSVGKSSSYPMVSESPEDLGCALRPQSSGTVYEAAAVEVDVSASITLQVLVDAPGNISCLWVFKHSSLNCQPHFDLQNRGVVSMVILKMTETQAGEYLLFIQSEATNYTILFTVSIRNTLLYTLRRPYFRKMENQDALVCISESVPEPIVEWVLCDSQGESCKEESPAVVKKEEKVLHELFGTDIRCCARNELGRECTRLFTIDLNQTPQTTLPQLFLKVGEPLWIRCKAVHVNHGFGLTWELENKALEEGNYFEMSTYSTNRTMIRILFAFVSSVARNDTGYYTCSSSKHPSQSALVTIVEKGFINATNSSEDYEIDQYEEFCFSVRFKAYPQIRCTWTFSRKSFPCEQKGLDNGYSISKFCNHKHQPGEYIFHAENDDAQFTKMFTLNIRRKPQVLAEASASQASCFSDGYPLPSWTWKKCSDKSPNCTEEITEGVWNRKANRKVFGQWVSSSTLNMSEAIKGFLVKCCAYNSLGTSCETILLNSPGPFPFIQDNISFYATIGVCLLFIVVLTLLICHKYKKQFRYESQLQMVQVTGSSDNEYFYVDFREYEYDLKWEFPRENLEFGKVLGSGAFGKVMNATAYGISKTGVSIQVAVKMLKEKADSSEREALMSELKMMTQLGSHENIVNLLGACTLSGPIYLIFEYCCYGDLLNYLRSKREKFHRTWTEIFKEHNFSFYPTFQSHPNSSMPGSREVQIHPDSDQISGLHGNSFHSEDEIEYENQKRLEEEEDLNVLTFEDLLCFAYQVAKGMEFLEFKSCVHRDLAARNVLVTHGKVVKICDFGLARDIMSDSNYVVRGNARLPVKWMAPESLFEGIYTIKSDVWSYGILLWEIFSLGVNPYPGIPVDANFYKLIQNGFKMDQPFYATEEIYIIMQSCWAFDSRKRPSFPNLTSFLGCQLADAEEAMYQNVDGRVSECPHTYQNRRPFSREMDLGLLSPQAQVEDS
Chain of LIM domain kinase 2 (Homo sapiens) (P53671 whole entry, looked up, the tested form may be a part): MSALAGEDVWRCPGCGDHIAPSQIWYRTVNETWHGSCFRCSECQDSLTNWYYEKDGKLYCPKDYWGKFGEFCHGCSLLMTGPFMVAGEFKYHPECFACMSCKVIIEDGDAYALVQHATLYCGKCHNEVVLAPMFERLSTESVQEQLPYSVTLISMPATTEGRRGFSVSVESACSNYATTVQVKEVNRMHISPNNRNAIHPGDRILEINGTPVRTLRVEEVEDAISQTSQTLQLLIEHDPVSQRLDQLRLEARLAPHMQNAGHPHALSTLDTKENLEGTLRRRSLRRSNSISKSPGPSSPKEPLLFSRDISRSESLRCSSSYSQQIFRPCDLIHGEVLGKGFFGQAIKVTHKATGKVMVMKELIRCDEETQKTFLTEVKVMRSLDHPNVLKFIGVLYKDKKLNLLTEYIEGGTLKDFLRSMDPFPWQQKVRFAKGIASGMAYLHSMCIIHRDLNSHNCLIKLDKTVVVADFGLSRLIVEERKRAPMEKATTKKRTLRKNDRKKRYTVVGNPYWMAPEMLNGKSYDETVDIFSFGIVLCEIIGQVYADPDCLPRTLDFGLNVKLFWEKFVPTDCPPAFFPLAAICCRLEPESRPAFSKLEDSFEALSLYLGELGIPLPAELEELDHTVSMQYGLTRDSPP
Chain of Serine/threonine-protein kinase SIK2 (Homo sapiens) (Q9H0K1 whole entry, looked up): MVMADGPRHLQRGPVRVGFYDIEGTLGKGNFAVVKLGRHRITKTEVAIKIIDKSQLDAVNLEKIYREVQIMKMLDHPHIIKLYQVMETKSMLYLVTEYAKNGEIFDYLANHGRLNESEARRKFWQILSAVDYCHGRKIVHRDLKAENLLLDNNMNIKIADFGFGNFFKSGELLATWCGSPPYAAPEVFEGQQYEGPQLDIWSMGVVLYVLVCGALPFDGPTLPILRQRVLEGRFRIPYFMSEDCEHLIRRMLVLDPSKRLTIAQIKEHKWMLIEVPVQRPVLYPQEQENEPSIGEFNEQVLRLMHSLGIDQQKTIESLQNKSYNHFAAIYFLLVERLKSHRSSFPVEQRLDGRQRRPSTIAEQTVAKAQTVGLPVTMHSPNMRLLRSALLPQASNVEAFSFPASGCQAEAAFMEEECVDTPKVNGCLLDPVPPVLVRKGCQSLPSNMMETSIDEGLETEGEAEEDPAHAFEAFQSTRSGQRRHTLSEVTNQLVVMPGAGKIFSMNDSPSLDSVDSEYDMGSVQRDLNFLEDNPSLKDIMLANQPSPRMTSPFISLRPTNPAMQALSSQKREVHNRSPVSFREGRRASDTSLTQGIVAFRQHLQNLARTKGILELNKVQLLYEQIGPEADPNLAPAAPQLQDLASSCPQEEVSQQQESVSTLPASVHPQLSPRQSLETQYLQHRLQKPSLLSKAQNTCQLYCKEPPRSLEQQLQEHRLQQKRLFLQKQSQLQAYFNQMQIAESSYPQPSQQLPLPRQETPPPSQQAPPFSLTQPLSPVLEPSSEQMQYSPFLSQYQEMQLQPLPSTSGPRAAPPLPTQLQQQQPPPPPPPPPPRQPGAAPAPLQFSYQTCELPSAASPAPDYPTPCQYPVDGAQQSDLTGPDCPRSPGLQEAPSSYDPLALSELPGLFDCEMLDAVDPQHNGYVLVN

Regarding `O=C(Nc1nc2ccccc2s1)c1cccc2c1CN(c1nc(C(=O)O)c(CCOc3ccc(-n4ncc5cncnc54)cc3)s1)CC2` [A-1107969], the % Inhibition of Control Specific Binding (Mean n=2) in series [1] is -19.5%; in series [2], -6.1%; in series [4], -7.3%; in [5] it was -2.3%; in [6], -0.4%. The inhibition at 60 min, 10 µM in series [3] was 11.1%.

On to `CN(C)CC#Cc1ccc(OCCCc2sc(N3CCc4cccc(C(=O)Nc5nc6ccccc6s5)c4C3)nc2C(=O)O)c(F)c1` [A-1155463], for which the residual activity was 83% in [7]; 100% in series [8]; 91% in [9]; 86% in series [10]; 96% in series [11]; 100% in series [12]. Also, the residual activity is 100% in series [13]; 89% in series [14]; 90% in series [15]; 100% in series [16]; 100% in series [17]; 100% in [18]. The residual activity was 96% in series [19]; 87% in [20]; 76% in series [21]; 96% in [22]; 88% in series [23]; 96% in [24]. Besides, the residual activity in series [25] was 100%; in [26], 97%; in [27], 100%; in [28], 75%; in series [29] it was 100%; in series [30], 99%. For the same compound, the residual activity in series [31] was 92%; in series [32] it was 100%; in [33], 82%; in series [34], 100%; in [35], 88%; in series [36], 92%. For the same compound, the % Inhibition of Control Specific Binding (Mean n=2) was -2.9% in series [1]; 6.7% in series [2]; 28.6% in series [4]; 8.5% in [5]; 13.5% in series [6]. In addition, in series [3], the inhibition at 60 min, 10 µM stood at 74.5%.
